From patent US20230019280A1, “SUBSTITUTED ISOINDOLONYL 2,2'-BIP[…], ANALOGUES THEREOF, AND METHODS USING SAME” (priority 2019, published 2023)
Where two headings read alike, the source gives them in different places.

Tested on: HBsAg
Assay: HBsAg assay (inhibition of HBsAg in HepG2.2.15 cells)
Assay type: cell-based, hepatitis B virus
Details: supernatant HBsAg by CLIA at day 6 after exposure of compounds
Experimental: Inhibition of HBsAg was determined in HepG2.2.15 cells. Cells were maintained in culture medium containing 10% fetal calf serum, […], Glutamine, penicillin/streptomycin. Cells were seeded in 96-well collagen-coated plate at a density of 30,000 cells/well. Serially diluted compounds were added to cells next day at the final DMSO concentration of 0.5%. Cells were incubated with compounds for 2-3 days, after which medium was removed. Fresh medium containing compounds was added to cells for additional 3-4 days. At day 6 after exposure of compounds, supernatant was collected, the HBsAg immunoassay (microplate-based chemiluminescence immunoassay kits, CLIA, Autobio Diagnosics Co., Zhengzhou, China, Catalog #CL0310-2) was used to determine the level of HBsAg according to manufactory instruction. Dose-response curves were generated and the EC50 value (effective concentrations that achieved 50% inhibitory effect) were determined using XLfit software. In addition, cells were seeded at a density of 5,000 cells/well for determination of cell viability in the presence and absence of compounds by using CellTiter-Glo reagent (Promega).

[1] = Hepatitis B virus, HepG2.2.15, 144 h, read-out: sAg EC50, HepG2.2.15 cells
[2] = read-out: sAg EC50, HepG2.2.15 cells

Row | SMILES | EC50 [1] [nM] | EC50 [2] [nM]
1 | CCC1c2cc(F)c(OC)cc2C(=O)N1c1nc(-c2ncccn2)ncc1OC (centres unmarked) [Example 25, 3-Ethyl-5-fluoro-6-methoxy-2-(5-methoxy-[2,2′-bipyrimidin]-4-yl)isoindolin-1-one] | 10000 | –
2 | CCC1c2cc(OC)c(OC)cc2C(=O)N1c1ccnc(-c2ncc(F)cn2)n1 (single isomer, unassigned) [Example 72, 3-Ethyl-2-(5′-fluoro-[2,2′-bipyrimidin]-4-yl)-5,6-dimethoxyisoindolin-1-one] | – | 39
3 | CCC1c2cc(OC)c(OC)cc2C(=O)N1c1ccnc(-c2ncc(F)cn2)n1 (single isomer, unassigned) [Example 73, 3-Ethyl-2-(5′-fluoro-[2,2′-bipyrimidin]-4-yl)-5,6-dimethoxyisoindolin-1-one] | – | 1000
4 | COc1cc2c(cc1OC)C(c1ccc3c(c1)OCCO3)N(c1ccnc(-c3ncccn3)n1)C2=O (centres unmarked) [Example 26, 2-([2,2′-Bipyrimidin]-4-yl)-3-(2,3-dihydrobenzo[b][1,4]dioxin-6-yl)-5,6-dimethoxyisoindolin-1-one] | 18 | –
5 | CCC1c2cc(F)c(OC)cc2C(=O)N1c1ccnc(-c2ncccn2)n1 (single isomer, unassigned) [Example 49, 3-Ethyl-5-fluoro-6-methoxy-2-(2-pyrimidin-2-ylpyrimidin-4-yl)isoindolin-1-one] | – | 10
6 | CCC1c2cc(F)c(OC)cc2C(=O)N1c1nc(-c2ncccn2)ncc1F (single isomer, unassigned) [Example 55, 3-Ethyl-5-fluoro-2-(5-fluoro-2-pyrimidin-2-yl-pyrimidin-4-yl)-6-methoxy-isoindolin-1-one] | – | 50
7 | CCC1c2cc(Cl)cc(F)c2C(=O)N1c1ccnc(-c2ncccn2)n1 (single isomer, unassigned) [Example 21, 2-([2,2′-Bipyrimidin]-4-yl)-5-chloro-3-ethyl-7-fluoroisoindolin-1-one] | – | 25000
8 | CCC1c2cc(OC)c(OC)cc2C(=O)N1c1cc(F)nc(-c2ncccn2)n1 (single isomer, unassigned) [Example 69, 3-Ethyl-2-(6-fluoro-[2,2′-bipyrimidin]-4-yl)-5,6-dimethoxyisoindolin-1-one] | – | 49000
9 | CCC1c2cc(OC)c(OC)cc2C(=O)N1c1cnc(-c2ncccn2)nc1 (centres unmarked) [Example 30, 3-Ethyl-5,6-dimethoxy-2-(2-pyrimidin-2-ylpyrimidin-5-yl)isoindolin-1-one] | 48000 | –
10 | COc1cc2c(cc1OC)C(C(C)(C)C)N(c1ccnc(-c3ncccn3)n1)C2=O (centres unmarked) [Example 45, 2-([2,2′-Bipyrimidin]-4-yl)-3-(tert-butyl)-5,6-dimethoxyisoindolin-1-one] | 3 | –
11 | CCC1c2cc(OC)c(OC)cc2C(=O)N1c1nc(-c2ncccn2)ncc1F (single isomer, unassigned) [Example 66, 3-Ethyl-2-(5-fluoro-[2,2′-bipyrimidin]-4-yl)-5,6-dimethoxyisoindolin-1-one] | – | 34
12 | CCCC1c2cc(OC)c(OC)cc2C(=O)N1c1ccnc(-c2ncccn2)n1 (centres unmarked) [Example 38, 2-([2,2′-Bipyrimidin]-4-yl)-5,6-dimethoxy-3-propylisoindolin-1-one] | 10 | –
13 | CCC1c2cc(OC)c(OC)cc2C(=O)N1c1cccc(-c2ncccn2)n1 (centres unmarked) [Example 31, 3-Ethyl-5,6-dimethoxy-2-(6-(pyrimidin-2-yl)pyridin-2-yl)isoindolin-1-one] | 7000 | –
14 | CCC1c2cc(Cl)cc(F)c2C(=O)N1c1ccnc(-c2ncccn2)n1 (single isomer, unassigned) [Example 20, 2-([2,2′-Bipyrimidin]-4-yl)-5-chloro-3-ethyl-7-fluoroisoindolin-1-one] | – | 45
15 | CCC1c2cc(F)c(OC(C)C)cc2C(=O)N1c1nc(-c2ncccn2)ncc1F (single isomer, unassigned) [Example 57, 3-Ethyl-5-fluoro-2-(5-fluoro-[2,2′-bipyrimidin]-4-yl)-6-isopropoxyisoindolin-1-one] | 110 | –
16 | COCCC1c2cc(F)c(OC)cc2C(=O)N1c1ccnc(-c2ncccn2)n1 (single isomer, unassigned) [Example 53, 2-([2,2′-Bipyrimidin]-4-yl)-5-fluoro-6-methoxy-3-(2-methoxyethyl)isoindolin-1-one] | – | 38
17 | COc1cc2c(cc1OC)C(c1ccccc1)N(c1ccnc(-c3ncccn3)n1)C2=O (centres unmarked) [Example 42, 2-([2,2′-Bipyrimidin]-4-yl)-5,6-dimethoxy-3-phenylisoindolin-1-one] | 1 | –
18 | COc1cc2c(cc1OC)C1(CC1)N(c1ccnc(-c3ncccn3)n1)C2=O [Example 46, 2′-([2,2′-Bipyrimidin]-4-yl)-5′,6′-dimethoxyspiro[cyclopropane-1,1′-isoindolin]-3′-one] | 240 | –
19 | O=C1c2c(F)cc(F)cc2CN1c1ccnc(-c2ncccn2)n1 [Example 60, 2-([2,2′-Bipyrimidin]-4-yl)-5,7-difluoroisoindolin-1-one] | 850 | –
20 | COc1cc2c(cc1OC)C(Cc1ccccc1)N(c1ccnc(-c3ncccn3)n1)C2=O (single isomer, unassigned) [Example 15, 2-([2,2′-Bipyrimidin]-4-yl)-3-benzyl-5,6-dimethoxyisoindolin-1-one] | – | 40000
21 | COc1cc2c(cc1OC)C(=O)N(c1ccnc(-c3ncccn3)n1)CC2 [Example 63, 2-([2,2′-Bipyrimidin]-4-yl)-6,7-dimethoxy-3,4-dihydroisoquinolin-1(2H)-one] | 520 | –
22 | CCC1c2cc(OC)c(OC)cc2C(=O)N1c1cc(F)nc(-c2ncccn2)n1 (single isomer, unassigned) [Example 68, 3-Ethyl-2-(6-fluoro-[2,2′-bipyrimidin]-4-yl)-5,6-dimethoxyisoindolin-1-one] | – | 1000
23 | CCC1c2cc(OC)c(OC)cc2C(=O)N1c1ccnc(-c2ncccn2)n1 (single isomer, unassigned) [Example 3, 2-([2,2′-Bipyrimidin]-4-yl)-3-ethyl-5,6-dimethoxyisoindolin-1-one] | – | 1000
